Our source for the EC50 and IC50 values is US20240400591A1 (Jacobio Pharmaceuticals Co., Ltd., priority 2021, published 2024).

Each structure is given as a SMILES string. Like-named read-outs stand apart in the source and are kept apart here.

Assay [1] concerns the target T1, His-p53 Y220C (94-294) protein (Homo sapiens, UniProt P04637, Y220C).
T1 construct: His-p53 Y220C (94-294) protein
Put plainly: In vitro DNA binding assay (HTRF). Format: biochemical. The following applies: % activation normalized to 2 μM Ref-1a high control. (In TR-FRET formats the signal depends on donor and acceptor labels being close together.)

Another assay relates to NUGC3 (P53 Y220C). Put plainly: Cell viability assay (CellTiter-Glo, 6 days), NUGC3. The format is cell-based. Summed up:
(§1)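 Cells seeded overnight at 37 °C, then exposed to compounds in medium for 6 days. Viability read by CellTiter-Glo luminescence, normalized to DMSO cell wells (high) and medium-only wells (low); IC50 taken as concentration giving 50% viability from 4-parameter logistic fit.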
Background: In ATP-based viability assays light output follows the ATP content of the culture.

In the next assay the test system is NUGC4 (P53 WT). Put plainly: Cell viability assay (CellTiter-Glo, 6 days), NUGC4. The format is cell-based. The method, boiled down: as §1
Assay [2] has as its system NUGC-3_P53_Luc single clonal cell line (p53 Y220C). Put plainly: Reporter gene assay (p53 RE luciferase). Format: cell-based. The method, boiled down: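 NUGC-3 cells stably carrying a p53 RE-driven luc2P reporter, washed free of phenol red, exposed to compound for 6 h at 37 °C; luminescence read. Activity normalised between DMSO (low) and Ref-1a 10 μM (high) controls; EC50 from 4-parameter logistic fit or Excel as concentration giving 50% activity.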

[3] abbreviates: Homo sapiens, NUGC-3, 144 h, cell viability, 6 days, CellTiter-Glo, read-out: NUGC3 (P53 Y220C) IC50.
[4] abbreviates: Homo sapiens, NUGC-4, 144 h, cell viability, 6 days, CellTiter-Glo, read-out: NUGC4 (P53 WT) IC50.
Where [5] appears, read: Homo sapiens, NUGC-3, luciferase reporter, 6 hours, normalized to Ref-1a (10 μM) high control, read-out: p53(Y220C)_NUGC-3 EC50.
[6] abbreviates: cell viability, 6 days, CellTiter-Glo, read-out: NUGC3 (P53 Y220C) IC50.
Where [7] appears, read: cell viability, 6 days, CellTiter-Glo, read-out: NUGC4 (P53 WT) IC50.
Setting [8] is: luciferase reporter, 6 hours, normalized to Ref-1a (10 μM) high control, read-out: p53(Y220C)_NUGC-3 EC50.

Regarding `CN1CC[C@@H](Nc2cccc3c(CC(F)(F)F)c(C#CCNc4ccc(P(C)(C)=O)cc4C(=O)NC4CC4)sc23)[C@@H](F)C1` [Example 215, N-cyclopropyl-5-(dimethylphosphoryl)-2-((3-(7-(((3S,4R)-3-fluoro-1-methylpiperidin-4-yl)amino)-3-(2,2,2-trifluoroethyl)benzo[b]thiophen-2-yl)prop-2-yn-1-yl)amino)benzamide], the EC50 in assay [1] was found to be 42 nM; in assay [2] (setting [5]), 0.14 µM. Besides, the IC50 amounted to 0.37 µM in the assay with NUGC3 (P53 Y220C) (setting [3]) and 37.3 µM with NUGC4 (P53 WT) (setting [4]).
Consider `CN1CC[C@@H](Nc2cccc3c(CC(F)(F)F)c(C#CCNc4ccc(P(C)(C)=O)cc4C(=O)NC4CCOCC4)sc23)[C@@H](F)C1` [Example 216, 5-(dimethylphosphoryl)-2-((3-(7-(((3S,4R)-3-fluoro-1-methylpiperidin-4-yl)amino)-3-(2,2,2-trifluoroethyl)benzo[b]thiophen-2-yl)prop-2-yn-1-yl)amino)-N-(tetrahydro-2H-pyran-4-yl)benzamide], for which the results for the half-maximal effective concentration (EC50) in assay [1] and in assay [2] (setting [5]) were 48 nM and 0.12 µM, respectively. Further, the IC50 is 0.27 µM in the assay on NUGC3 (P53 Y220C) (setting [3]) and more than 50 µM with NUGC4 (P53 WT) (setting [4]).
On to `COCCNC(=O)c1cc(P(C)(C)=O)ccc1NCC#Cc1sc2c(N[C@@H]3CCN(C)C[C@@H]3Cl)cccc2c1CC(F)(F)F` [Example 219, 2-((3-(7-(((3S,4R)-3-chloro-1-methylpiperidin-4-yl)amino)-3-(2,2,2-trifluoroethyl)benzo[b]thiophen-2-yl)prop-2-yn-1-yl)amino)-5-(dimethylphosphoryl)-N-(2-methoxyethyl)benzamide], for which the EC50 in assay [1] worked out at 45 nM; in assay [2] (Homo sapiens, NUGC-3, 6 h, read-out: p53(Y220C)_NUGC-3 EC50 (μM)), 0.09 µM. For the same molecule, the IC50 with NUGC3 (P53 Y220C) (Homo sapiens, NUGC-3, 144 h, read-out: NUGC3 (P53 Y220C) IC50 (μM)) turned out to be 0.36 µM; in the assay with NUGC4 (P53 WT) (Homo sapiens, NUGC-4, 144 h, read-out: NUGC4 (P53 WT) IC50 (μM)) it was 19.5 µM.
For the molecule `CN1CC[C@@H](Nc2cccc3c(CC(F)(F)F)c(C#CCNc4ccc(P(C)(C)=O)c5ncsc45)sc23)[C@@H](F)C1` [Example 220, (7-((3-(7-(((3S,4R)-3-fluoro-1-methylpiperidin-4-yl)amino)-3-(2,2,2-trifluoroethyl)benzo[b]thiophen-2-yl)prop-2-yn-1-yl)amino)benzo[d]thiazol-4-yl)dimethylphosphine oxide], the EC50 in assay [1] is 41 nM; in assay [2] (setting [5]), 0.15 µM. Moreover, the figures for the IC50 in the assay on NUGC3 (P53 Y220C) (setting [3]) and in the assay with NUGC4 (P53 WT) (setting [4]) were 0.25 µM and 8.11 µM, respectively.
For `CN1CC[C@H](Nc2cccc3c(CC(F)(F)F)c(C#CCNc4ccc(P(C)(C)=O)cc4C(F)F)sc23)[C@H](F)C1` [Example 225, (3-(difluoromethyl)-4-((3-(7-(((3R,4S)-3-fluoro-1-methylpiperidin-4-yl)amino)-3-(2,2,2-trifluoroethyl)benzol[b]thiophen-2-yl)prop-2-yn-1-yl)amino)phenyl)dimethylphosphine oxide], the EC50 in assay [1] is 36 nM; in assay [2] (Homo sapiens, NUGC-3, 6 h, luciferase reporter, 6 hours, normalized to Ref-1a (10 μM) high control, read-out: p53(Y220C)_NUGC-3 EC50), 0.17 µM. In addition, the IC50 turned out to be 0.44 µM in the assay on NUGC3 (P53 Y220C) (setting [3]) and 13.6 µM with NUGC4 (P53 WT) (setting [4]).
As to `COc1cc([S@@](C)(=N)=O)ccc1NCC#Cc1sc2c(N[C@@H]3CCN(C)C[C@@H]3F)cccc2c1CC(F)(F)F` [Example 226, (S)-(4-((3-(7-(((3S,4R)-3-fluoro-1-methylpiperidin-4-yl)amino)-3-(2,2,2-trifluoroethyl)benzo[b]thiophen-2-yl)prop-2-yn-1-yl)amino)-3-methoxyphenyl)(imino)(methyl)-16-sulfanone], the EC50 in assay [1] worked out at 39 nM; in assay [2] (setting [8]) it was 0.05 µM. For the same molecule, the values for the IC50 in the assay on NUGC3 (P53 Y220C) (setting [6]) and in the assay on NUGC4 (P53 WT) (setting [7]) were 0.32 µM and 19.4 µM, respectively.
On the same counts, the results for `COc1cc([S@](C)(=N)=O)ccc1NCC#Cc1sc2c(N[C@@H]3CCN(C)C[C@@H]3F)cccc2c1CC(F)(F)F` [Example 227, (R)-(4-((3-(7-(((3S,4R)-3-fluoro-1-methylpiperidin-4-yl)amino)-3-(2,2,2-trifluoroethyl)benzo[b]thiophen-2-yl)prop-2-yn-1-yl)amino)-3-methoxyphenyl)(imino)(methyl)-16-sulfanone] are 40 nM, 0.04 µM, 0.28 µM and 17.6 µM.
For `COc1cc(S(C)(=O)=O)ccc1NCC#Cc1cc2c(N[C@@H]3CCN(C)C[C@@H]3F)cccc2n1CC(F)(F)F` [Ref-1a, N-((3S,4R)-3-fluoro-1-methylpiperidin-4-yl)-2-(3-((2-methoxy-4-(methylsulfonyl)phenyl)amino)prop-1-yn-1-yl)-1-(2,2,2-trifluoroethyl)-1H-indol-4-amine, reference compound], the EC50 in assay [1] amounted to 48 nM; in assay [2] (setting [5]) it was 0.05 µM. Moreover, the results for the IC50 in the assay with NUGC3 (P53 Y220C) (setting [3]) and in the assay with NUGC4 (P53 WT) (setting [4]) were 0.54 µM and 11 µM, respectively.
For `COc1cc(S(C)(=O)=O)ccc1NCC#Cc1cc2c(N[C@H]3CCN(C)C[C@H]3F)cccc2n1CC(F)(F)F` [Ref-1b, N-((3R,4S)-3-fluoro-1-methylpiperidin-4-yl)-2-(3-((2-methoxy-4-(methylsulfonyl)phenyl)amino)prop-1-yn-1-yl)-1-(2,2,2-trifluoroethyl)-1H-indol-4-amine, reference compound] the same measures were 96 nM, 0.2 µM, 1.92 µM and 12.5 µM.

Usually EC50 stands for the concentration giving half of the maximal effect. The term IC50 denotes the point on the concentration scale where inhibition reaches its midpoint.
